From ChEMBL document CHEMBL1275250, “In vitro activity of azithromycin against nontyphoidal Salmonella enterica” (2010)
Values after ≈ are worked out from the molar mass of the structure shown.

Tests used:
[1] = Antibacterial activity against quinolone-susceptible Salmonella enterica serovar poona s2181 by agar dilution method; type: functional, Salmonella enterica subsp. enterica serovar Poona
[2] = Antibacterial activity against quinolone-susceptible Salmonella enterica serovar emek s2635 by agar dilution method; type: functional, Salmonella enterica subsp. enterica serovar Emek
[3] = Antibacterial activity against quinolone-susceptible Salmonella enterica serovar newport s2099 by agar dilution method; type: functional, Salmonella enterica subsp. enterica serovar Newport
[4] = Antibacterial activity against Salmonella enterica serovar blockley harboring G235A mutation in rlpD gene by agar dilution method; type: functional, Salmonella enterica subsp. enterica serovar Blockley
[5] = system: Salmonella typhimurium; assay: Antibacterial activity against quinolone-susceptible Salmonella enterica serovar Typhimurium s2137 by agar dilution method; type: functional, Salmonella enterica subsp. enterica serovar Typhimurium
[6] = Antibacterial activity against Salmonella enterica subsp. enterica serovar Saintpaul harboring G235A mutation in rlpD gene by agar dilution method; type: functional
[7] = Antibacterial activity against quinolone-susceptible Salmonella enterica serovar virchow s2195 by agar dilution method; type: functional, Salmonella enterica subsp. enterica serovar Virchow
[8] = system: Salmonella typhimurium; assay: Antibacterial activity against quinolone-susceptible Salmonella enterica serovar Typhimurium s2391 by agar dilution method; type: functional, Salmonella enterica subsp. enterica serovar Typhimurium
[9] = Antibacterial activity against quinolone-resistant Salmonella enterica serovar stanley s2236 by agar dilution method; type: functional, Salmonella enterica subsp. enterica serovar Stanley
[10] = Antibacterial activity against quinolone-susceptible Salmonella enterica serovar blockley s2608 by agar dilution method; type: functional, Salmonella enterica subsp. enterica serovar Blockley
[11] = Antibacterial activity against quinolone-susceptible Salmonella enterica serovar hvittingfoss s2948 by agar dilution method; type: functional, Salmonella enterica subsp. enterica serovar Hvittingfoss
[12] = Antibacterial activity against quinolone-resistant Salmonella enterica serovar stanley s2265 by agar dilution method; type: functional, Salmonella enterica subsp. enterica serovar Stanley
[13] = Antibacterial activity against quinolone-susceptible Salmonella enterica serovar blockley s2439 by agar dilution method; type: functional, Salmonella enterica subsp. enterica serovar Blockley
[14] = Antibacterial activity against quinolone-susceptible Salmonella enterica serovar bredeney s2477 by agar dilution method; type: functional, Salmonella enterica subsp. enterica serovar Bredeney
[15] = Antibacterial activity against quinolone-resistant Salmonella enterica serovar stanley s2086 by agar dilution method; type: functional, Salmonella enterica subsp. enterica serovar Stanley
[16] = system: Salmonella typhimurium; assay: Antibacterial activity against quinolone-susceptible Salmonella enterica serovar Typhimurium s2389 by agar dilution method; type: functional, Salmonella enterica subsp. enterica serovar Typhimurium
[17] = Antibacterial activity against quinolone-susceptible Salmonella enterica serovar stanley s2868 by agar dilution method; type: functional, Salmonella enterica subsp. enterica serovar Stanley
[18] = Antibacterial activity against quinolone-resistant Salmonella enterica serovar stanley s2085 by agar dilution method; type: functional, Salmonella enterica subsp. enterica serovar Stanley
[19] = Antibacterial activity against quinolone-susceptible Salmonella enterica serovar saintpaul s2829 by agar dilution method; type: functional, Salmonella enterica subsp. enterica serovar Saintpaul
[20] = Antibacterial activity against quinolone-resistant Salmonella enterica serovar stanley s2018 by agar dilution method; type: functional, Salmonella enterica subsp. enterica serovar Stanley
[21] = system: Salmonella typhimurium; assay: Antibacterial activity against Salmonella enterica serovar Typhimurium harboring G235A mutation in rlpD gene by agar dilution method; type: functional, Salmonella enterica subsp. enterica serovar Typhimurium
[22] = system: Salmonella enterica; assay: Antibacterial activity against quinolone-resistant Salmonella enterica; type: functional
[23] = system: Salmonella typhimurium; assay: Antibacterial activity against quinolone-susceptible Salmonella enterica serovar Typhimurium s3082 by agar dilution method; type: functional, Salmonella enterica subsp. enterica serovar Typhimurium
[24] = system: Salmonella enteritidis; assay: Antibacterial activity against quinolone-susceptible Salmonella enterica serovar enteritidis s3139 by agar dilution method; type: functional, Salmonella enterica subsp. enterica serovar Enteritidis
[25] = Antibacterial activity against quinolone-susceptible Salmonella enterica serovar rissen s2021 by agar dilution method; type: functional, Salmonella enterica subsp. enterica serovar Rissen
[26] = Antibacterial activity against quinolone-resistant Salmonella enterica serovar stanley s2280 by agar dilution method; type: functional, Salmonella enterica subsp. enterica serovar Stanley
[27] = Antibacterial activity against Salmonella enterica serovar montevideo harboring rlpD GC379T and rlpV G25A mutant gene by agar dilution method; type: functional, Salmonella enterica subsp. enterica serovar Montevideo
[28] = Antibacterial activity against quinolone-susceptible Salmonella enterica serovar blockley s2768 by agar dilution method; type: functional, Salmonella enterica subsp. enterica serovar Blockley
[29] = Antibacterial activity against quinolone-susceptible Salmonella enterica serovar rissen s3141 by agar dilution method; type: functional, Salmonella enterica subsp. enterica serovar Rissen

CC[C@H]1OC(=O)[C@H](C)[C@@H](O[C@H]2C[C@@](C)(OC)[C@@H](O)[C@H](C)O2)[C@H](C)[C@@H](O[C@@H]2O[C@H](C)C[C@H](N(C)C)[C@H]2O)[C@](C)(O)C[C@@H](C)CN(C)[C@H](C)[C@@H](O)[C@]1(C)O [AZITHROMYCIN]
MIC [1]: 32 µg/mL (≈ 42.7 µM) | MIC [2]: 64 µg/mL (≈ 85.4 µM) | MIC [3]: 32 µg/mL (≈ 42.7 µM) | MIC [4]: 64 µg/mL (≈ 85.4 µM) | MIC [5]: 128 µg/mL (≈ 171 µM) | MIC [6]: 64 µg/mL (≈ 85.4 µM) | MIC [7]: > 128 µg/mL | MIC [8]: 128 µg/mL (≈ 171 µM) | MIC [9]: 32 µg/mL (≈ 42.7 µM) | MIC [10]: 64 µg/mL (≈ 85.4 µM) | MIC [11]: 128 µg/mL (≈ 171 µM) | MIC [12]: 128 µg/mL (≈ 171 µM) | MIC [13]: 64 µg/mL (≈ 85.4 µM) | MIC [14]: > 128 µg/mL | MIC [15]: 64 µg/mL (≈ 85.4 µM) | MIC [16]: 128 µg/mL (≈ 171 µM) | MIC [17]: 128 µg/mL (≈ 171 µM) | MIC [18]: 64 µg/mL (≈ 85.4 µM) | MIC [19]: 64 µg/mL (≈ 85.4 µM) | MIC [20]: 64 µg/mL (≈ 85.4 µM) | MIC [21]: 128 µg/mL (≈ 171 µM) | MIC [22]: ≥ 32 µg/mL | MIC [23]: 128 µg/mL (≈ 171 µM) | MIC [24]: 128 µg/mL (≈ 171 µM) | MIC [25]: > 128 µg/mL | MIC [26]: 64 µg/mL (≈ 85.4 µM) | MIC [27]: 4 µg/mL (≈ 5.34 µM) | MIC [28]: 128 µg/mL (≈ 171 µM) | MIC [29]: 64 µg/mL (≈ 85.4 µM)

CC[C@H]1OC(=O)[C@H](C)[C@@H](O[C@H]2C[C@@](C)(OC)[C@@H](O)[C@H](C)O2)[C@H](C)[C@@H](O[C@@H]2O[C@H](C)C[C@H](N(C)C)[C@H]2O)[C@](C)(O)C[C@@H](C)C(=O)[C@H](C)[C@@H](O)[C@]1(C)O [ERYTHROMYCIN]
MIC [4]: > 128 µg/mL | MIC [6]: > 128 µg/mL | MIC [21]: > 64 µg/mL | MIC [27]: > 64 µg/mL

CCn1cc(C(=O)O)c(=O)c2ccc(C)nc21 [NALIDIXIC ACID]
MIC [4]: > 512 µg/mL | MIC [6]: 16 µg/mL (≈ 68.9 µM) | MIC [21]: 16 µg/mL (≈ 68.9 µM) | MIC [22]: ≥ 32 µg/mL | MIC [27]: 16 µg/mL (≈ 68.9 µM)

CC[C@H]1OC(=O)[C@H](C)C(=O)[C@H](C)[C@@H](O[C@@H]2O[C@H](C)C[C@H](N(C)C)[C@H]2O)[C@](C)(OC)C[C@@H](C)C(=O)[C@H](C)[C@H]2N(CCCCn3cnc(-c4cccnc4)c3)C(=O)O[C@]12C [TELITHROMYCIN]
MIC [4]: > 128 µg/mL | MIC [6]: > 128 µg/mL | MIC [21]: > 128 µg/mL | MIC [27]: 4 µg/mL (≈ 4.93 µM)

O=C(O)c1cn(C2CC2)c2cc(N3CCNCC3)c(F)cc2c1=O [CIPROFLOXACIN]
MIC [4]: 0.25 µg/mL (≈ 0.754 µM) | MIC [6]: 0.03 µg/mL (≈ 0.0905 µM) | MIC [21]: 0.06 µg/mL (≈ 0.181 µM) | MIC [22]: ≥ 0.125 µg/mL | MIC [27]: 0.5 µg/mL (≈ 1.51 µM)
